{"source": "patent US20040138291A1", "about": "“Treatment of sexual dysfunction” (priority 2002, published 2004)", "key": {"[1]": {"system": "aged (18 months) female Wistar rats", "test": "Recovery of APO-induced GVA response in aged female rats with short-term anti-hypertensive treatment", "assay_type": "in vivo, rat", "method": "Aged (18 months) and control (3-4 months) female Wistar rats were assessed for APO-induced GVA response as described above (Example 1). Aged females were then treated with enalapril (30 mg kg^−1day^−1, orally)+low salt diet for 2 weeks. Prior to, during, and after treatment, apomorphine (80 ug kg^−1, s.c.) was used to elicit GVA responses. The frequency of GVA responses per rat for a 30-minute period was determined as described above (Example 1)."}, "[2]": {"system": "male spontaneously hypertensive rats (SHR)", "test": "APO-induced penile erectile response in aging SHR with anti-hypertensive and testosterone treatments", "assay_type": "in vivo, rat", "settings": "for number of erections relative to pre-treatment: summary of Example 3; for increase in number of erections two weeks off treatment: third treatment at 68 weeks, previously untreated rats, low salt diet, 30 mg/kg per day", "method": "Animals: 30-week-old male spontaneously hypertensive rats (Charles River Laboratories, Montreal, Quebec, Canada) were housed individually at a temperature of 22-24° C. with a 12-hour light/dark cycle. They were provided with free access to regular rodent chow (0.4% Na^+) and tap water. All procedures were performed in accordance with the guidelines of the Canadian Council on Animal Care.\nAnti-hypertensive Treatments. Rats were randomly divided into three groups. The control animals received only tap water. One treatment group received the ACE inhibitor enalapril maleate (30 mg/kg per day), and the other received the vasodilator hydralazine (45 mg/kg per day) (enalapril and hydralazine supplied by Sigma Chemical Co., St. Louis, Mo.) administered orally through their drinking water for 2 weeks. Aspartame (100 mg/1) was added to the hydralazine solution to improve the taste. Drug concentrations were calculated based on previously established drinking patterns^(24). Several times throughout the 2-week treatment period, the drug concentrations in the drinking water were adjusted to account for fluctuations in animal weight or fluid intake. Erectile response was measured in all groups with the administration of apomorphine (APO). APO-testing was performed three times before treatment and twice between days 7-14 of treatment.\nA second two-week anti-hypertensive treatment was performed at 49 weeks of age. Rather than trying to prevent erectile dysfunction, this treatment attempted to restore erectile function. The same drugs and procedures were used as outlined above. APO-testing was performed twice between days 7-14 of treatment and twice off treatment.\nRats were randomized into four new treatment groups. The previously untreated rats received enalapril (30 mg/kg per day) or losartan (30 mg/kg per day) in their drinking water and were fed a low sodium diet (0.04% Na^+). After 6 days of treatment, a daily 4-hour access to salt containing regular chow (0.4% Na^+) was permitted to allow for a depressor response of 50% of the pre-treatment levels^(25). The treated rats received enalapril (30 mg/kg per day) in their drinking water and a low sodium diet (0.04% Na^+) or a triple therapy treatment^(24) combining hydralazine (45 mg/kg per day), a calcium channel blocker, nifedipine (200 mg per day) and a diuretic, hydrochlorothiazide (100 mg/l) (all drugs supplied by Sigma Chemical Co., St. Louis, Mo.). Hydralazine and hydrochlorothiazide were administered in the drinking water and nifedipine was mixed into ground regular rodent chow during the 12 h dark cycle. Aspartame (100 mg/l) was added to the hydralazine solution to improve the taste. APO-testing was performed twice between days 7-14 of treatment and twice off treatment.\nTestosterone was prepared from a stock solution of testosterone propionate (Taro Pharmaceuticals, Bramalea, Ontario) diluted in peanut oil. Each rat received a single dose of testosterone (480 μg/kg) administered via subcutaneous injection in the neck. Testosterone was administered 36 hours prior to APO-testing.\nAssessment of Erectile Response. Erectile response was assessed using the well-established bio-assay rat model developed by Heaton et al.^(17). The rats were placed in separate, wire hanging-wall cages with clear Plexiglas bottoms in a dark, quiet room and allowed to acclimate for 20 minutes. Each rat received apomorphine (80 μg/kg) in saline ([…] apomorphine plus 100 μg/ml ascorbic acid) via subcutaneous injection (1 ml/kg) in the loose skin of the neck or back. Erections and yawns were counted at 5-minute intervals over a 30-minute period via videomonitoring in an adjacent room."}, "female Wistar rats": {"system": "female Wistar rats", "test": "APO-induced genital vasocongestive arousal (GVA) response bio-assay, intact rats", "settings": "for average number of GVA responses: APO 80 ug/kg s.c.; for average number of GVA responses / yawning responses: 30 minutes; for yawning responses: intact animals"}, "[3]": {"system": "ovariectomized (OVX) Wistar rats", "test": "APO-induced responses in ovariectomized (OVX) rats", "assay_type": "in vivo, rat", "method": "A modification of a previous protocol using APO (80 ug/kg in 100 ug/ml ascorbic acid in water, s.c.) was used^(17). […] Rats were placed in hanging cages with bottoms constructed of Plexiglas®, in a dark, quiet room where they were allowed to acclimate for 10 minutes before the testing period. Following APO administration, the number of genital responses and associated yawning responses were recorded for a 30 minute period via a video monitoring system in an adjacent room.\nAPO-induced responses were determined in ovariectomized (OVX)^(22) rats to determine the effect of reduced levels of endogenous hormones. In brief, animals were anaesthetized with isoflurane gas delivered via a Bain rebreathing system. A small midline dorsal skin incision was made approximately half-way between the middle of the back and the base of the tail. Both ovaries were removed by ligating and severing the junction between the fallopian tube and uterine hom. Post-operative analgesia (buprenorphine, Buprenex™, 0.05 mg/kg) and antibiotics (0.1 ml/100 g body wt., Tribrissen™ 24%, Schering Canada Inc.) were administered daily for 5 days. Animals were given at least one week to recover before the onset of experimentation."}, "[4]": {"settings": "distribution over the 30-minute period"}}}
{"smiles": "CCOC(=O)[C@H](CCc1ccccc1)N[C@@H](C)C(=O)N1CCC[C@H]1C(=O)O", "note": "[enalapril]", "values": [{"measurement": "frequency of APO-induced GVA responses off treatment relative to the treatment period", "setting": "[1]; 1 & 3 week off-treatment, p<0.05", "value": "persistent and significant increase"}, {"measurement": "persistence of increased sexual responsiveness to APO after cessation of treatment", "setting": "[1]; compared to pre-treatment levels", "value": "persisted for at least ten weeks"}, {"measurement": "overall APO-induced GVA response rate in aged females", "setting": "[1]; during anti-hypertensive treatment", "value": 56, "unit": "%"}, {"measurement": "APO-induced GVA responses during anti-hypertensive treatment", "setting": "[1]; enalapril 30 mg/kg/day orally + low salt diet, 2 weeks, p=0.065", "value": "trend of increasing"}, {"measurement": "overall APO-induced GVA response rate in aged females", "setting": "[1]; off-treatment", "value": 93, "unit": "%"}, {"measurement": "partial behavioural responses", "setting": "[1]; persisted after cessation of the treatment, FIG. 2", "value": "increase in the number of partial behavioural responses"}, {"measurement": "APO-induced GVA response of aged rats after two weeks of daily treatment", "setting": "[1]; summary of pilot study", "value": "increased to levels of young rats"}, {"measurement": "average number of erections two weeks after treatment was withdrawn", "setting": "[2]; second treatment at 49 weeks", "value": "significantly higher level than the pre treatment values"}, {"measurement": "increase in average number of erections on treatment vs pre treatment", "setting": "[2]; second treatment at 49 weeks, not significant", "value": "> 2", "unit": "fold"}, {"measurement": "number of erections relative to pre-treatment", "setting": "[2]", "value": "significant increases"}, {"measurement": "increase in number of erections two weeks off treatment", "setting": "[2]", "value": 2, "unit": "fold"}]}
{"smiles": "CCC(=O)O[C@H]1CC[C@H]2[C@@H]3CCC4=CC(=O)CC[C@]4(C)[C@H]3CC[C@]12C", "note": "[Testosterone, testosterone propionate]", "values": [{"measurement": "effect of testosterone on erectile response", "setting": "[2]; 66 weeks of age", "value": "did not increase erectile response"}, {"measurement": "effect of testosterone on number of yawns", "setting": "[2]; 66 weeks of age", "value": "significantly increase"}, {"measurement": "effect of testosterone supplementation on number of erections", "setting": "[2]; control rats and rats treated with hydralazine, 47 and 66 weeks of age, 480 μg/kg s.c.", "value": "did not significantly affect"}, {"measurement": "increase in number of erections with testosterone", "setting": "[2]; enalapril treated rats, after the first testosterone treatment", "value": 2.5, "unit": "fold"}]}
{"smiles": "CN1CCc2cccc3c2[C@H]1Cc1ccc(O)c(O)c1-3", "note": "[APO, apomorphine]", "values": [{"measurement": "share of total GVA responses occurring within the first 20 minutes", "setting": "female Wistar rats; 30-minute period", "value": 80, "unit": "%"}, {"measurement": "genital grooming responses, dose-response assessment", "setting": "female Wistar rats; APO 40, 80 & 120 ug/kg, result for 80 ug/kg, preliminary studies", "value": "greatest number of genital grooming responses"}, {"measurement": "non-GVA responses, APO vs control tested animals", "setting": "female Wistar rats; any stage of the estrous cycle", "value": "no significant difference"}, {"measurement": "average number of GVA responses", "setting": "female Wistar rats; diestrus 1", "value": "1.13±1.36"}, {"measurement": "yawning responses", "setting": "female Wistar rats; diestrus 1", "value": "2±2.50"}, {"measurement": "average number of GVA responses", "setting": "female Wistar rats; diestrus II", "value": "0.88±0.85"}, {"measurement": "time of peak of APO-induced GVA responses", "setting": "female Wistar rats; [4]", "value": "5 to 10", "unit": "min"}, {"measurement": "time of peak of APO-induced yawning responses", "setting": "female Wistar rats; [4]", "value": "15 to 20", "unit": "min"}, {"measurement": "average number of GVA responses", "setting": "female Wistar rats; estrus", "value": "1.75±1.67"}, {"measurement": "average number of GVA responses", "setting": "female Wistar rats; metestrus", "value": "1.5±1.20"}, {"measurement": "yawning responses", "setting": "female Wistar rats; metestrus", "value": "3.63±3.96"}, {"measurement": "average number of GVA responses", "setting": "female Wistar rats; proestrus, 8 rats", "value": "1.5±1.06"}, {"measurement": "average GVA responses in control (3-4 months) female rats", "setting": "[1]; APO 80 ug/kg s.c., 30 minute period", "value": "about 2"}, {"measurement": "APO-induced GVA response rate in aged females", "setting": "[1]; pre-treatment", "value": 40, "unit": "%"}, {"measurement": "GVA responses in aged female rats relative to controls", "setting": "[1]; prior to anti-hypertensive treatment, APO 80 ug/kg s.c.", "value": "significantly fewer"}, {"measurement": "APO-induced erectile responses with age", "setting": "[2]; SHR 30-68 weeks, APO 80 μg/kg s.c.", "value": "progressive loss of response"}, {"measurement": "reduction of GVA responses in OVX rats relative to intact animals", "setting": "[3]; 8 OVX Wistar rats, 30 minute period", "value": "about 80%"}, {"measurement": "non-GVA responses, OVX vs intact animals", "setting": "[3]; APO administration", "value": "no significant difference"}]}
{"smiles": "CCCCc1nc(Cl)c(CO)n1Cc1ccc(-c2ccccc2-c2nn[nH]n2)cc1", "note": "[losartan]", "values": [{"measurement": "number of erections relative to pre-treatment", "setting": "[2]", "value": "significant increases"}, {"measurement": "increase in number of erections two weeks off treatment", "setting": "[2]", "value": 2, "unit": "fold"}]}
